Results as given in patent publication US8003785B2 (Takeda Pharmaceutical Company Limited, priority 2008, dated 2011).

These compounds were tested against T1, PLK1 (Homo sapiens, UniProt P53350) (assay: Biochemical Characterization Assay: HTRF kinase assay, GST-PLK1 phosphorylation of GST-p53). Settings: GST-PLK1, GST-p53 substrate.
T1 construct: Full-length, active GST-PLK1 is purified from Sf9 insect cells; made in house; host or cells: Sf9 insect cells
Summary of the method: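 Full-length active GST-PLK1 (Sf9, 3 ug/mL) phosphorylated full-length GST-p53 (E. coli) in Kinase Assay Buffer for 35 min at 37 °C. Stopped with EDTA; phospho-p53 detected by HTRF with anti-phospho-p53, Eu-anti-rabbit and APC-anti-GST antibodies.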

T1 sequence (P53350 whole entry): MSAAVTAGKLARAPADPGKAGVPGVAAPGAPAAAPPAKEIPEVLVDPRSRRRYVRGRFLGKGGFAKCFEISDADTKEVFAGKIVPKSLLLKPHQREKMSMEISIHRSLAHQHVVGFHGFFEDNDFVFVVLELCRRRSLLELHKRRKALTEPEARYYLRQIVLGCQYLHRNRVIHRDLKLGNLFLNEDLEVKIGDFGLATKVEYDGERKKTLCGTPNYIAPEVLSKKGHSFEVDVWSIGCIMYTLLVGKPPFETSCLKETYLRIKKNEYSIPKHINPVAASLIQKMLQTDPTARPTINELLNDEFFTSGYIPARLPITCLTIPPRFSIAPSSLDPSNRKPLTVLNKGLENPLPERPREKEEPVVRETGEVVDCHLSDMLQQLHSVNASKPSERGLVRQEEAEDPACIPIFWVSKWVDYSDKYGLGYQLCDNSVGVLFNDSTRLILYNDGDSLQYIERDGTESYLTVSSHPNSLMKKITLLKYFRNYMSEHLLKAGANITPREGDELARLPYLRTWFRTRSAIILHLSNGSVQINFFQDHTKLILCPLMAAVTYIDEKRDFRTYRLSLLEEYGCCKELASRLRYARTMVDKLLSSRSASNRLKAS

Question: CN(C)CCNC(=O)c1cc(F)c(Nc2ncc3c(n2)N(C2CCCC2)CC(F)(F)C(=O)N3C)cc1F [Example I-236, 4-(9-cyclopentyl-7,7-difluoro-5-methyl-6-oxo-6,7,8,9-tetrahydro-5H-pyrimido[4,5-b][1,4]diazepin-2-ylamino)-N-(2-dimethylamino-ethyl)-2,5-difluoro-benzamide] was tested. Which IC50 did it give?
Answer: 1 to 50 nM

Question: Which IC50 does the source give for CCOc1cc(C(=O)NC2CCN(CC)CC2)ccc1Nc1ncc2c(n1)N(C1CCCC1)CC(F)(F)C(=O)N2C [Example I-216, 4-(9-cyclopentyl-7,7-difluoro-5-methyl-6-oxo-6,7,8,9-tetrahydro-5H-pyrimido[4,5-b][1,4]diazepin-2-ylamino)-3-ethoxy-N-(1-ethyl-piperidin-4-yl)-benzamide] here?
Answer: 1 to 50 nM

Question: CN1C(=O)C(F)(F)CN(C2CCCCC2)c2nc(Nc3ccc(C(=O)O)cc3)ncc21 [Example I-256, 4-(9-cyclohexyl-7,7-difluoro-5-methyl-6-oxo-6,7,8,9-tetrahydro-5H-pyrimido[4,5-b][1,4]diazepin-2-ylamin)-benzoic acid] was tested. Which IC50 did it give?
Answer: 1 to 50 nM

Question: Which IC50 does the source give for CN1C(=O)C(F)(F)CN(C2CCCC2)c2nc(Nc3ccc(C(=O)NC4CCOCC4)cc3C(F)(F)F)ncc21 [Example I-207, 4-(9-cyclopentyl-7,7-difluoro-5-methyl-6-oxo-6,7,8,9-tetrahydro-5H-pyrimido[4,5-b][1,4]diazepin-2-ylamino)-N-(tetrahydro-pyran-4-yl)-3-trifluoromethyl-benzamide] here?
Answer: 51 to 500 nM

Question: For CCN1C(=O)C(F)(F)CN(C2CCCC2)c2nc(Nc3ccc(C(=O)NC4CCOCC4)cc3OC)ncc21 [Example I-161, 4-(9-cyclopentyl-5-ethyl-7,7-difluoro-6-oxo-6,7,8,9-tetrahydro-5H-pyrimido[4,5-b][1,4]diazepin-2-ylamino)-3-methoxy-N-(tetrahydro-pyran-4-yl)-benzamide], which IC50 is on record?
Answer: 500 to 5000 nM

Question: For COc1cc(C(=O)NCCCN(C)C)ccc1Nc1ncc2c(n1)N(C(C)C)CC(F)(F)C(=O)N2C [Example I-296, 4-(7,7-difluoro-9-isopropyl-5-methyl-6-oxo-6,7,8,9-tetrahydro-5H-pyrimido[4,5-b][1,4]diazepin-2-ylamino)-N-(3-dimethylamino-propyl)-3-methoxy-benzamide], which IC50 is on record?
Answer: 1 to 50 nM

Question: With COc1cc(C(=O)NC2CCN(C)CC2)ccc1Nc1ncc2c(n1)N([C@@H]1C[C@H]1c1ccccc1)CC(F)(F)C(=O)N2C (relative stereo) [Example I-288, 4-[7,7-difluoro-5-methyl-6-oxo-9-(trans-2-phenyl-cyclopropyl)-6,7,8,9-tetrahydro-5H-pyrimido[4,5-b][1,4]diazepin-2-ylamino]-3-methoxy-N-(1-methyl-piperidin-4-yl)-benzamide] as the compound, how does the IC50 read?
Answer: 51 to 500 nM

Question: For CCN1CCC(NC(=O)c2ccc(Nc3ncc4c(n3)N(C3CCCCC3)CC(F)(F)C(=O)N4C)c(OC)c2)CC1 [Example I-255, 4-(9-cyclohexyl-7,7-difluoro-5-methyl-6-oxo-6,7,8,9-tetrahydro-5H-pyrimido[4,5-b][1,4]diazepin-2-ylamino)-N-(1-ethyl-piperidin-4-yl)-3-methoxy-benzamide], which IC50 is on record?
Answer: 1 to 50 nM

Same assay, conditions: GST-PLK1, GST-p53 substrate, ATP

Question: For COc1cc(C(=O)NC2CCN(C(C)C)CC2)ccc1Nc1ncc2c(n1)N(C1CCCC1)CC(F)(F)C(=O)N2C [Example I-64, 4-(9-cyclopentyl-7,7-difluoro-5-methyl-6-oxo-6,7,8,9-tetrahydro-5H-pyrimido[4,5-b][1,4]diazepin-2-ylamino)-N-(1-isopropyl-piperidin-4-yl)-3-methoxy-benzamide], which IC50 is on record?
Answer: 1 to 50 nM

Question: Which IC50 does the source give for COc1cc(C(=O)NC2CN3CCC2CC3)ccc1Nc1ncc2c(n1)N(C1CCCC1)CC(F)(F)C(=O)N2C [Example I-106, N—(R)-1-aza-bicyclo[2.2.2]oct-3-yl-4-(9-cyclopentyl-7,7-difluoro-5-methyl-6-oxo-6,7,8,9-tetrahydro-5H-pyrimido[4,5-b][1,4]diazepin-2-ylamino)-3-methoxy-benzamide] here?
Answer: 1 to 50 nM

Question: With COc1cc(C(=O)NC2CCN(C)CC2)ccc1Nc1ncc2c(n1)N(C1CCCC1)CC(F)(F)C(=O)N2CC(F)(F)F [Example I-150, 4-[9-cyclopentyl-7,7-difluoro-6-oxo-5-(2,2,2-trifluoro-ethyl)-6,7,8,9-tetrahydro-5H-pyrimido[4,5-b][1,4]diazepin-2-ylamino]-3-methoxy-N-(1-methyl-piperidin-4-yl)-benzamide] as the compound, how does the IC50 read?
Answer: 500 to 5000 nM

Question: Which IC50 does the source give for COc1cc(C(=O)N[C@@H]2CCN(C(=O)OC(C)(C)C)C2)ccc1Nc1ncc2c(n1)N(C1CCCC1)CC(F)(F)C(=O)N2C [Example I-81, R-3-[4-(9-cyclopentyl-7,7-difluoro-5-methyl-6-oxo-6,7,8,9-tetrahydro-5H-pyrimido[4,5-b][1,4]diazepin-2-ylamino)-3-methoxy-benzoylamino]-pyrrolidine-1-carboxylic acid tert-butyl ester] here?
Answer: 51 to 500 nM

Question: For COc1cc(C(N)=O)ccc1Nc1ncc2c(n1)N(C1CCCC1)CC(F)(F)C(=O)N2 [Example I-152, 4-(9-cyclopentyl-7,7-difluoro-6-oxo-6,7,8,9-tetrahydro-5H-pyrimido[4,5-b][1,4]diazepin-2-ylamino)-3-methoxy-benzamide], which IC50 is on record?
Answer: 500 to 5000 nM

Question: How did the IC50 turn out when CN1C(=O)C(F)(F)CN(C2CCC2)c2nc(Nc3ccc(C(=O)NC4CCOCC4)cc3)ncc21 [Example I-17, 4-(9-cyclobutyl-7,7-difluoro-5-methyl-6-oxo-6,7,8,9-tetrahydro-5H-pyrimido[4,5-b][1,4]diazepin-2-ylamino)-N-(tetrahydro-pyran-4-yl)-benzamide] was run?
Answer: 1 to 50 nM

Question: Which IC50 does the source give for COc1cc(C(=O)Nc2ccncc2)ccc1Nc1ncc2c(n1)N(C1CCCC1)CC(F)(F)C(=O)N2C [Example I-129, 4-(9-cyclopentyl-7,7-difluoro-5-methyl-6-oxo-6,7,8,9-tetrahydro-5H-pyrimido[4,5-b][1,4]diazepin-2-ylamino)-3-methoxy-N-pyridin-4-yl-benzamide] here?
Answer: 1 to 50 nM

Question: For CCN1C(=O)C(F)(F)CN(C2CCCC2)c2nc(Nc3ccc(C(=O)NCCCN(C)C)cc3)ncc21 [Example I-142, 4-(9-cyclopentyl-5-ethyl-7,7-difluoro-6-oxo-6,7,8,9-tetrahydro-5H-pyrimido[4,5-b][1,4]diazepin-2-yl-amino)-N-(3-dimethyl-amino-propyl)-benzamide], which IC50 is on record?
Answer: 500 to 5000 nM

Question: How did the IC50 turn out when COc1cc(C(=O)NCC2CCN(C(=O)OC(C)(C)C)C2)ccc1Nc1ncc2c(n1)N(C1CCCC1)CC(F)(F)C(=O)N2C (stereo not shown) [Example I-92, 3-{[4-(9-cyclopentyl-7,7-difluoro-5-methyl-6-oxo-6,7,8,9-tetrahydro-5H-pyrimido[4,5-b][1,4]diazepin-2-ylamino)-3-methoxy-benzoylamino]-methyl}-pyrrolidine-1-carboxylic acid tert-butyl ester] was run?
Answer: 51 to 500 nM

Question: How did the IC50 turn out when COc1cc(C(=O)NCC(F)(F)F)ccc1Nc1ncc2c(n1)N(C1CCCC1)CC(F)(F)C(=O)N2C [Example I-31, 4-(9-cyclopentyl-7,7-difluoro-5-methyl-6-oxo-6,7,8,9-tetrahydro-5H-pyrimido[4,5-b][1,4]diazepin-2-ylamino)-3-methoxy-N-(2,2,2-trifluoro-ethyl)-benzamide] was run?
Answer: 1 to 50 nM

Question: For COc1cc(C(=O)NC2CN(C)C2)ccc1Nc1ncc2c(n1)N(C1CCCC1)CC(F)(F)C(=O)N2C [Example I-99, 4-(9-cyclopentyl-7,7-difluoro-5-methyl-6-oxo-6,7,8,9-tetrahydro-5H-pyrimido[4,5-b][1,4]diazepin-2-ylamino)-3-methoxy-N-(1-methyl-azetidin-3-yl)-benzamide], which IC50 is on record?
Answer: 1 to 50 nM
